Experiments:
[1] = biological target: T1, TNFα high affinity receptors on L929 fibroblasts (Mus musculus, UniProt P25118); test: 125I-TNFα binding to high affinity receptors on L929 fibroblasts; settings: 90 min, N=6
T1 construct: host or cells: L929 mouse fibroblasts
T1 sequence (P25118 30-454): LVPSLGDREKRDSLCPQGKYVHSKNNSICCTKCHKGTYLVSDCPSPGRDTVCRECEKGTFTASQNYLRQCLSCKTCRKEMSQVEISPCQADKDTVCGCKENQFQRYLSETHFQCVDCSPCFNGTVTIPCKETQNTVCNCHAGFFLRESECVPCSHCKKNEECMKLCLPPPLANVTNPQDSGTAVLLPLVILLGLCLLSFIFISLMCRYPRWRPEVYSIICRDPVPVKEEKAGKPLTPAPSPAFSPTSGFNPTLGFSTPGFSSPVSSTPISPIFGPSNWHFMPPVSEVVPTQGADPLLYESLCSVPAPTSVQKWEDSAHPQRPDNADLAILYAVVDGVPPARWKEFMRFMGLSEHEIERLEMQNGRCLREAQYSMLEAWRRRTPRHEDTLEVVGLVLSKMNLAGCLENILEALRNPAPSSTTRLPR
Excerpt: Few reports in the literature indicate interaction at these receptor sites other than by peptides or antibodies. […] Blocking these receptors is desirable because the entire inflammation cascade of events is triggered by the early release of TNFa and IL-1. […] Radioisotopes were obtained from New England Nuclear [Dupont, Boston, MA] and substrates and co- factors were obtained from Sigma Chemical Co. [St. Louis, MO]. […] Cell lines were obtained from American Type Culture Collection [Rockville, MD]. In Vivo Tests Anti-inflammatory screen in mice: Male CF male mice weighing 28-32g obtained from Jackson Lab. [Bar Harbor, […]] were used to screen agents at 8 or 16 mg/kg intraperitoneal [I.P.] x 2 administered 3 hr and 30 min prior to administering the irritant, according to Winter's protocol. Evaluation of the induced edema was made by injecting 2% carrageenan in 0.9% saline into the plantar region of the foot. The opposite foot injected with 0.9% isotonic saline was used as a base line. […] Salmonella abortus equi [Lot # 69F4003] […] Drugs from 2 to 16 mg/kg, I.P. were administered 2 hr prior and 2 hr post-injection of the LPS and then subsequently for every 24 hr for the length ofthe animals' lives. Deaths were recorded every 12 hr and continued for 96 hr. […] In vitro TNFa andIL-1 Measurements and Cellular Regulation IC-21 mouse macrophages were maintained in RPMI-1640 + 10% FCS + P/S. After the cells had grown to confluency, E. coli LPS at 10 Ixg/ml was added to the medium. Agents were incubated at 12.5 to 100 µM final concentration for 18 hr. The medium (100 btl) was collected for TNFCt determinations. Interleukin-1 [IL-1] release was determined using P388D1 cells which were maintained in RPMI-1640 + 10% FCS + P/S. The L929 bioassay was used to quantitate the TNF and the IL-1 levels. The L929 mouse fibroblasts were grown in DMEM + 10% FCS + P/S to confluency in 96 well plates and incubated with 100 tl ofmedium from […] or P388D cells after 18 hr. The cells were stained with 0.2% crystal violet in 20% MeOH and read at 580 nm using a Molecular Devices scanner (SOFT-max program). High Affinity Binding to Receptors on L929-106 Cells Two laCi of 125I-TNFct (human recombinant, 30 mCi/tg New England Nuclear) or 125I-IL-1 (70-120[.t Ci/lxg,New England Nuclear) was added to confluency L929 cells for 90 min or 5 hr, […] The cells were washed repeatedly with isotonic saline, pH.7.2 and aliquots counted. Prostaglandin cylcooxygenase activity Mouse J774AI macrophages maintained in Dulbecco's modified Eagle's medium + 15% FCS + P/S. Cells (5 x 106) were incubated with agents (5 to 100 ].tM final concentration) and 3H-arachidonic acid (100 Ci/mol) for 60 min at 37C in a CO2 incubator. The reaction was terminated with 2N HCI, the mixture extracted 2 X with ether, and the organic layer evaporated.

[2] = biological target: human leukocyte elastase (RPMI 1788); test: Elastase activity in human leukocytes RPMI 1788; type: biochemical
[3] = biological target: IC-21 macrophage elastase; test: Elastase activity in IC-21 macrophages; type: biochemical, mouse; settings: 120 min

COc1c2cc(S(=O)(=O)[O-])cc1Cc1cc(S(=O)(=O)[O-])cc(c1OC)Cc1cc(S(=O)(=O)[O-])cc(c1OC)Cc1cc(S(=O)(=O)[O-])cc(c1OC)Cc1cc(S(=O)(=O)[O-])cc(c1OC)Cc1cc(S(=O)(=O)[O-])cc(c1OC)C2.[Na+].[Na+].[Na+].[Na+].[Na+].[Na+] [Compound 6]
TNFα binding, Percent of Control ([1]; 5 μM): 61 + 5% of Control
TNFα binding, Percent of Control ([1]; 12.5 μM): 39 + 4% of Control
TNFα binding, Percent of Control ([1]; 25 μM): 24 + 3% of Control
TNFα binding, Percent of Control ([1]; 50 μM): 36 + 5% of Control
IC50 ([2]; 60 min): 275 µM
IC50 ([2]; 120 min): 162 µM

CC(=O)Oc1c2cc(S(=O)(=O)[O-])cc1Cc1cc(S(=O)(=O)[O-])cc(c1OC(C)=O)Cc1cc(S(=O)(=O)[O-])cc(c1OC(C)=O)Cc1cc(S(=O)(=O)[O-])cc(c1OC(C)=O)Cc1cc(S(=O)(=O)[O-])cc(c1OC(C)=O)Cc1cc(S(=O)(=O)[O-])cc(c1OC(C)=O)Cc1cc(S(=O)(=O)[O-])cc(c1OC(C)=O)Cc1cc(S(=O)(=O)[O-])cc(c1OC(C)=O)C2.[Na+].[Na+].[Na+].[Na+].[Na+].[Na+].[Na+].[Na+] [Compound 8]
TNFα binding, Percent of Control ([1]; 5 μM): 59 + 6% of Control
TNFα binding, Percent of Control ([1]; 25 μM): 23 + 4% of Control
TNFα binding, Percent of Control ([1]; 50 μM): 37 + 4% of Control
IC50 [3]: 111 µM

— PMC2365101, “Anti-Inflammatory Activity of (Polyphenolic)-Sulfonates and Their Sodium Salts in Rodents” (Metal-Based Drugs, 1998)
